Source: the supplement of paper PMC8149375

What was measured:
Conditions in all cases: treatment: drug alone; 5 days
[1] = system: ACHN; experiment: minimum viability across doses, drug alone, relative to DMSO (fraction); higher = less growth inhibition
Protocol: (§1)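 Primary HTS: 8 RCC cell lines treated with 8 doses (up to 10 uM) of each library drug alone for 5 days; viability read by CellTiter-Glo and normalised to DMSO. GI50 was fitted with XLfit (4-parameter), AUC is the area under the dose-response curve, and minimum viability is the lowest fraction of DMSO viability across doses.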

[2] = system: TK-10; experiment: as above
Protocol: as §1

[3] = system: UO-31; experiment: as above
Protocol: as §1

[4] = system: A498; experiment: as above
Protocol: as §1

[5] = system: 786-O; experiment: as above
Protocol: as §1

[6] = system: CAKI-1; experiment: as above
Protocol: as §1

[7] = system: SN12C; experiment: as above
Protocol: as §1

[8] = system: 769-P; experiment: as above
Protocol: as §1

[9] = system: ACHN; experiment: GI50, drug alone; higher = less potent
Protocol: as §1

[10] = system: TK-10; experiment: GI50, drug alone; higher = less potent
Protocol: as §1

[11] = system: UO-31; experiment: GI50, drug alone; higher = less potent
Protocol: as §1

[12] = system: A498; experiment: GI50, drug alone; higher = less potent
Protocol: as §1

[13] = system: 786-O; experiment: GI50, drug alone; higher = less potent
Protocol: as §1

[14] = system: CAKI-1; experiment: GI50, drug alone; higher = less potent
Protocol: as §1

[15] = system: SN12C; experiment: GI50, drug alone; higher = less potent
Protocol: as §1

[16] = system: 769-P; experiment: GI50, drug alone; higher = less potent
Protocol: as §1

[17] = system: ACHN; experiment: AUC of dose-response viability curve, drug alone (arbitrary (AUC of normalised viability)); higher = less growth inhibition
Protocol: as §1

[18] = system: TK-10; experiment: as above
Protocol: as §1

[19] = system: UO-31; experiment: as above
Protocol: as §1

[20] = system: A498; experiment: as above
Protocol: as §1

[21] = system: 786-O; experiment: as above
Protocol: as §1

[22] = system: CAKI-1; experiment: as above
Protocol: as §1

[23] = system: SN12C; experiment: as above
Protocol: as §1

[24] = system: 769-P; experiment: as above
Protocol: as §1

Compound | minimum viability across doses [1] | minimum viability across doses [2] | minimum viability across doses [3] | minimum viability across doses [4] | minimum viability across doses [5] | minimum viability across doses [6] | minimum viability across doses [7] | minimum viability across doses [8] | GI50, drug alone [9] [µM] | GI50, drug alone [10] [µM] | GI50, drug alone [11] [µM] | GI50, drug alone [12] [µM] | GI50, drug alone [13] [µM] | GI50, drug alone [14] [µM] | GI50, drug alone [15] [µM] | GI50, drug alone [16] [µM] | AUC of dose-response viability curve [17] | AUC of dose-response viability curve [18] | AUC of dose-response viability curve [19] | AUC of dose-response viability curve [20] | AUC of dose-response viability curve [21] | AUC of dose-response viability curve [22] | AUC of dose-response viability curve [23] | AUC of dose-response viability curve [24]
Cc1ccc(F)c(NC(=O)Nc2ccc(-c3cccc4[nH]nc(N)c34)cc2)c1 [Linifanib (ABT-869)] | 0.279 | 0.309 | 1.08 | 0.672 | 0.472 | 0.497 | 0.242 | 0.503 | 7.46 | 5.72 | > 10 | > 10 | 9.4 | 9.96 | 6.98 | > 10 | 3.34 | 2.99 | 4.69 | 3.32 | 3.03 | 3.49 | 3.28 | 3.21
C[C@]1(O)C[C@@H](c2nc(-c3ccc4ccc(-c5ccccc5)nc4c3)c3c(N)nccn32)C1 [Linsitinib (OSI-906)] | 0.495 | 0.651 | 0.904 | 0.972 | 0.663 | 0.562 | 0.915 | 0.878 | > 10 | > 10 | > 10 | > 10 | > 10 | > 10 | > 10 | > 10 | 3.06 | 2.79 | 4.26 | 4.2 | 2.85 | 2.99 | 3.35 | 3.19
Cn1cnc(-c2cc3nccc(Oc4ccc(NC(=S)NC(=O)Cc5ccccc5)cc4F)c3s2)c1 [MGCD-265] | 0.76 | 0.938 | 1.01 | 0.977 | 0.785 | 0.635 | 0.674 | 0.898 | > 10 | > 10 | > 10 | > 10 | > 10 | > 10 | > 10 | > 10 | 3.43 | 3.44 | 5.1 | 4.09 | 3.29 | 3.59 | 3.45 | 3.46
Cl.Cl.NC1(c2ccc(-c3nc4ccn5c(=O)[nH]nc5c4cc3-c3ccccc3)cc2)CCC1 [MK-2206 dihydrochloride] | 0.383 | 0.435 | 0.459 | 0.917 | 0.418 | 0.464 | 0.655 | 0.626 | 0.0672 | 4.66 | 9.92 | > 10 | 2.53 | 5.82 | > 10 | > 10 | 2.13 | 2.55 | 3.43 | 3.78 | 2.51 | 2.92 | 3.04 | 3.04
O=C(O)[C@]1(Cc2cccc(Nc3nccs3)n2)CC[C@@H](Oc2cccc(Cl)c2F)CC1 [MK-5108 (VX-689)] | 0.262 | 0.404 | 0.0125 | 0.41 | 0.00733 | 0.419 | 0.154 | 0.179 | 0.854 | 3.19 | 0.908 | 3.72 | 0.0304 | 3.25 | 1.32 | 2.61 | 2.35 | 2.65 | 3.38 | 3.44 | 1.01 | 2.88 | 2.46 | 3.08
O=C(O)c1ccc(Nc2ncc3c(n2)-c2ccc(Cl)cc2C(c2c(F)cccc2F)=NC3)cc1 [MLN8054] | 0.246 | 0.668 | 0.748 | 0.562 | 0.038 | 0.4 | 0.427 | 0.365 | 1.83 | > 10 | > 10 | > 10 | 0.523 | 3.18 | 6.21 | 5.56 | 2.48 | 2.93 | 3.59 | 3.53 | 2.52 | 2.84 | 3.01 | 2.85
COc1cc(Nc2ncc3c(n2)-c2ccc(Cl)cc2C(c2c(F)cccc2OC)=NC3)ccc1C(=O)O [MLN8237 (Alisertib)] | 0.194 | 0.492 | 0.531 | 0.569 | 0.0512 | 0.221 | 0.458 | 0.316 | 0.207 | 7.87 | > 10 | > 10 | 0.0711 | 0.67 | 3.14 | 0.888 | 1.81 | 2.78 | 3.14 | 3.27 | 1.47 | 2.31 | 2.85 | 2.44
Cc1ccc(NC(=O)c2ccc(CN3CCN(C)CC3)cc2)cc1Nc1nc(-c2cccnc2)cs1 [Masitinib (AB1010)] | 0.482 | 0.651 | 1 | 0.635 | 0.168 | 0.784 | 0.292 | 0.749 | 9.54 | > 10 | > 10 | > 10 | 5.57 | > 10 | 5.8 | > 10 | 3.23 | 3.39 | 4.02 | 3.2 | 3.22 | 3.47 | 3.01 | 3.32
CC1(C)CNc2cc(NC(=O)c3cccnc3NCc3ccncc3)ccc21.O=P(O)(O)O.O=P(O)(O)O [Motesanib Diphosphate] | 0.818 | 0.757 | 0.976 | 0.86 | 0.777 | 0.756 | 0.832 | 0.943 | > 10 | > 10 | > 10 | > 10 | > 10 | > 10 | > 10 | > 10 | 3.4 | 3.09 | 4.68 | 3.77 | 3.26 | 3.36 | 3.19 | 3.53
